Results from ChEMBL document CHEMBL3085631, “GluK1 antagonists from 6-(tetrazolyl)phenyl decahydroisoquinoline derivatives: in vitro profile and in vivo analgesic efficacy” (Bioorg Med Chem Lett, 2013).

Experiments:
Rattus norvegicus [1] = experiment: Analgesic activity in rat assessed as reversal of carrageenan-induced thermal hyperalgesia at 10 mg/kg, sc after 30 to 40 mins relative to vehicle-treated control; type: functional; settings: route subcutaneous
[2] = molecular target: Glutamate receptor ionotropic, kainate 1 (Homo sapiens, UniProt P39086); experiment: Displacement of [3H]ATPA from human Gluk1 receptor
Chain of Glutamate receptor ionotropic, kainate 1 (P39086 whole entry): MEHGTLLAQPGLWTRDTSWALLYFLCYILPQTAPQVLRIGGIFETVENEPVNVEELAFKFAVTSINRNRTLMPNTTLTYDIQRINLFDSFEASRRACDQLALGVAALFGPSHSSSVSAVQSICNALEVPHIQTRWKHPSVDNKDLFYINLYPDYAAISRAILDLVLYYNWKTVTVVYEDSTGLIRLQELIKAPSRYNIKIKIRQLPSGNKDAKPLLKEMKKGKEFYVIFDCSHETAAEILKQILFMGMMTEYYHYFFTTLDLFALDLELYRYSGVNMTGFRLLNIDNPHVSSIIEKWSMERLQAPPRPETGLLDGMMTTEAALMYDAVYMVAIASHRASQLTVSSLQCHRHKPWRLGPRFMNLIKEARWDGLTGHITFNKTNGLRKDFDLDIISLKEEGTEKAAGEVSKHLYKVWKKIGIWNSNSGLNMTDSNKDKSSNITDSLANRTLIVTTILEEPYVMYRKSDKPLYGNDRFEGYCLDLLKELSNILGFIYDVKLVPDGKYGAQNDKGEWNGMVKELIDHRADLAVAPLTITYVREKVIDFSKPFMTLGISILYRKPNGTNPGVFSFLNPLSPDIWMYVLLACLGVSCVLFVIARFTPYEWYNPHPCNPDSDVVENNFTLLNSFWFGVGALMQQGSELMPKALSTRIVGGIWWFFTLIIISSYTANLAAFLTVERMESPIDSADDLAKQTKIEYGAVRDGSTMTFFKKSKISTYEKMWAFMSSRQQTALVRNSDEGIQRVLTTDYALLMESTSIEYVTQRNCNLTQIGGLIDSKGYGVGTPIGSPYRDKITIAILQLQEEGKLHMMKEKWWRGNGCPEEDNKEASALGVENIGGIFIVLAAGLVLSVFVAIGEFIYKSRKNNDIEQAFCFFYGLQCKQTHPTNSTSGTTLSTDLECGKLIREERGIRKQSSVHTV

Glutamate receptor 2 = Glutamate receptor 2 (Homo sapiens, UniProt P42262); experiment: Displacement of [3H]AMPA from homomeric recombinant GluA2 receptor (unknown origin)
Chain of Glutamate receptor 2 (P42262 whole entry): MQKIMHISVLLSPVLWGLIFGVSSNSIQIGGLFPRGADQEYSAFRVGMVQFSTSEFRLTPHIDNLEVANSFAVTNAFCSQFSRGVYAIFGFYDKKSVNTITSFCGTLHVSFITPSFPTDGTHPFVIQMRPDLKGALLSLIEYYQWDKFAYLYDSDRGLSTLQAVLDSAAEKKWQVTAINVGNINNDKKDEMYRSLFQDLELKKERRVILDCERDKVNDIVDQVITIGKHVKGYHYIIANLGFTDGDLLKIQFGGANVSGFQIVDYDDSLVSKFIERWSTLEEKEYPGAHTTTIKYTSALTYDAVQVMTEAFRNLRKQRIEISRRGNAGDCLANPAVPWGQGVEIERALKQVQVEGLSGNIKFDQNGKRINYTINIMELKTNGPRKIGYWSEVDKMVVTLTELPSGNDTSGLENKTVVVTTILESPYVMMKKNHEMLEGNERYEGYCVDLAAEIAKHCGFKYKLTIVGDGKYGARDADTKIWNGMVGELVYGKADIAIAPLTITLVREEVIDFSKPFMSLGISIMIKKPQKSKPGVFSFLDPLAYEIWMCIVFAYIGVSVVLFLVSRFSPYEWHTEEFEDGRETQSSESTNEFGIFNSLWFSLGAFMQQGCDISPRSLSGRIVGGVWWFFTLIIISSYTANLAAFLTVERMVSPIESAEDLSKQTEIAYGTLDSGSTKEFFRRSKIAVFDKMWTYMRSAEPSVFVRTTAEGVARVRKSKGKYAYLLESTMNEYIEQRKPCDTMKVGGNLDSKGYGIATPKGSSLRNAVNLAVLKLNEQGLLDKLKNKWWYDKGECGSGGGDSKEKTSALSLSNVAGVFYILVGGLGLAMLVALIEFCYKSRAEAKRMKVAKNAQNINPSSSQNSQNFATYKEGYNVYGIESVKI

[3] = Oral bioavailability in rat at 5 mg/kg; type: ADME, organism-based; settings: in vivo
[4] = Plasma concentration in rat at 5 mg/kg, po after 1 hr; type: ADME, organism-based; parameters: dose 5 mg/kg, route oral
Rattus norvegicus [5] = experiment: Toxicity in Sprague-Dawley rat assessed as sedation at 5 to 10 mg/kg, po by rotarod test; type: organism-based; parameters: dose 5-10 mg/kg, route oral; settings: in vivo
Rattus norvegicus [6] = experiment: Analgesic activity in po dosed rat assessed as reversal of carrageenan-induced thermal hyperalgesia after 60 mins; type: functional; settings: 1 h, read-out: MED
Rattus norvegicus [7] = experiment: Analgesic activity in po dosed Sprague-Dawley rat assessed as reversal of formalin-induced late-phase paw-licking behavior after 1 hr; type: functional; settings: read-out: MED
Rattus norvegicus [8] = experiment: Toxicity in Sprague-Dawley rat assessed as ataxia at 5 to 10 mg/kg, po by rotarod test; type: organism-based; parameters: dose 5-10 mg/kg, route oral; settings: in vivo

| Compound | Activity (Rattus norvegicus [1]) | Ki [2] | Ki (Glutamate receptor 2) | other results |
| --- | --- | --- | --- | --- |
| O=C(O)[C@@H]1C[C@H]2C[C@@H](Oc3ccccc3-c3nn[nH]n3)CC[C@H]2CN1 | 152.6% | 1200 nM | 16 µM |  |
| O=C(O)[C@@H]1C[C@H]2C[C@@H](Nc3ccccc3-c3nn[nH]n3)CC[C@H]2CN1 | 124.8% | 800 nM | 6 µM |  |
| Cl.O=C(O)c1ccc(C[C@H]2CC[C@H]3CN[C@H](C(=O)O)C[C@H]3C2)cc1 | 67.8% |  |  |  |
| O=C(O)[C@@H]1C[C@H]2C[C@@H](Oc3cc(Oc4ccccc4)ccc3-c3nnn[nH]3)CC[C@H]2CN1 |  | 17000 nM | 335 µM |  |
| Cl.O=C(O)[C@@H]1C[C@H]2C[C@@H](Oc3cc(OCc4ccccc4)ccc3-c3nnn[nH]3)CC[C@H]2CN1 | 81.7% | 160 nM | 17 µM |  |
| Cl.O=C(O)[C@@H]1C[C@H]2C[C@@H](Oc3cc(Cc4ccccc4)ccc3-c3nnn[nH]3)CC[C@H]2CN1 | 89.8% | 160 nM | 9.6 µM |  |
| O=C(O)[C@@H]1C[C@H]2C[C@@H](Oc3cc(CCc4ccccc4)ccc3-c3nnn[nH]3)CC[C@H]2CN1 |  | 1700 nM | 9.6 µM |  |
| Cl.O=C(O)[C@@H]1C[C@H]2C[C@@H](Cc3ccccc3-c3nnn[nH]3)CC[C@H]2CN1 | 73% | 3000 nM | 13 µM |  |
| Cl.O=C(O)[C@@H]1C[C@H]2C[C@@H](Sc3ccccc3-c3nnn[nH]3)CC[C@H]2CN1 | 52.6% | 600 nM | 22 µM |  |
| Cl.O=C(O)[C@@H]1C[C@H]2C[C@@H](Oc3cccc(Cl)c3-c3nnn[nH]3)CC[C@H]2CN1 | 80.2% | 200 nM | 30 µM | bioavailability [3]: 42%; concentration at 1 h [4]: 1020 ng/mL; Activity (Rattus norvegicus [5]): Toxic; minimal effective dose (Rattus norvegicus [6]): 3 mg/kg; minimal effective dose (Rattus norvegicus [7]): 1 mg/kg; Activity (Rattus norvegicus [8]): Toxic |
| COc1cccc(O[C@H]2CC[C@H]3CN[C@H](C(=O)O)C[C@H]3C2)c1-c1nnn[nH]1 |  | 1100 nM | 252 µM |  |
| Cc1cccc(N[C@H]2CC[C@H]3CN[C@H](C(=O)O)C[C@H]3C2)c1-c1nnn[nH]1 |  | 3200 nM | 128 µM |  |
| COc1cccc(N[C@H]2CC[C@H]3CN[C@H](C(=O)O)C[C@H]3C2)c1-c1nnn[nH]1 |  | 12800 nM | 181 µM |  |
| O=C(O)[C@@H]1C[C@H]2C[C@@H](Nc3cccc(Cl)c3-c3nnn[nH]3)CC[C@H]2CN1 |  |  | 6.4 µM |  |
| O=C(O)[C@@H]1C[C@H]2C[C@@H](Oc3ccc(F)cc3-c3nnn[nH]3)CC[C@H]2CN1 |  | 900 nM | 2.7 µM |  |
| O=C(O)[C@@H]1C[C@H]2C[C@@H](Oc3ccc(Cl)cc3-c3nnn[nH]3)CC[C@H]2CN1 |  | 400 nM | 0.4 µM |  |

| Compound | Activity (Rattus norvegicus [1]) | Ki [2] | Ki (Glutamate receptor 2) | other results |
| --- | --- | --- | --- | --- |
| O=C(O)[C@@H]1C[C@H]2C[C@@H](Nc3ccc(F)cc3-c3nnn[nH]3)CC[C@H]2CN1 |  |  | 12 µM |  |
| Cc1ccc(-c2nnn[nH]2)c(O[C@H]2CC[C@H]3CN[C@H](C(=O)O)C[C@H]3C2)c1 |  | 1100 nM | 5.2 µM |  |
| COc1ccc(-c2nnn[nH]2)c(O[C@H]2CC[C@H]3CN[C@H](C(=O)O)C[C@H]3C2)c1 |  | 1400 nM | 2 µM |  |
| Cl.O=C(O)[C@@H]1C[C@H]2C[C@@H](Oc3cc(-c4ccccc4)ccc3-c3nnn[nH]3)CC[C@H]2CN1 | 100.8% | 100 nM | 2.3 µM |  |
| Cc1ccc(-c2nnn[nH]2)c(N[C@H]2CC[C@H]3CN[C@H](C(=O)O)C[C@H]3C2)c1 |  | 2900 nM | 6.2 µM |  |
| O=C(O)[C@@H]1C[C@H]2C[C@@H](Nc3cc(-c4ccccc4)ccc3-c3nnn[nH]3)CC[C@H]2CN1 |  | 1100 nM | 3.5 µM |  |
| O=C(O)[C@@H]1C[C@H]2C[C@@H](Oc3c(F)cccc3-c3nnn[nH]3)CC[C@H]2CN1 |  | 422000 nM | 450 µM |  |
| O=C(O)[C@@H]1C[C@H]2C[C@@H](Oc3cc(-c4ccccc4Cl)ccc3-c3nnn[nH]3)CC[C@H]2CN1 |  | 1000 nM | 13 µM |  |
| O=C(O)[C@@H]1C[C@H]2C[C@@H](Oc3cc(-c4cccc(Cl)c4)ccc3-c3nnn[nH]3)CC[C@H]2CN1 |  | 700 nM | 1.7 µM |  |
| O=C(O)[C@@H]1C[C@H]2C[C@@H](Oc3cc(-c4ccc(Cl)cc4)ccc3-c3nnn[nH]3)CC[C@H]2CN1 |  | 20 nM | 0.003 µM |  |
| O=C(O)[C@@H]1C[C@H]2C[C@@H](Oc3cc(-c4nccs4)ccc3-c3nnn[nH]3)CC[C@H]2CN1 |  | 900 nM | 2.2 µM |  |
| O=C(O)[C@@H]1C[C@H]2C[C@@H](Oc3cc(-c4cccs4)ccc3-c3nnn[nH]3)CC[C@H]2CN1 |  | 90 nM | 4.4 µM |  |
| O=C(O)[C@@H]1C[C@H]2C[C@@H](Oc3cc(-c4cccnc4)ccc3-c3nnn[nH]3)CC[C@H]2CN1 |  | 10000 nM | 20 µM |  |
| CC(C)Oc1ccc(-c2nnn[nH]2)c(O[C@H]2CC[C@H]3CN[C@H](C(=O)O)C[C@H]3C2)c1.Cl | 76.9% | 900 nM | 12 µM |  |
| O=C(O)[C@@H]1C[C@H]2C[C@@H](CCc3nn[nH]n3)CC[C@H]2CN1 [TEZAMPANEL ANHYDROUS] | 133% |  |  |  |
